Patent US20150105252A1, “SUBSTITUTED PYRAZOLES AS HERBICIDES” (E I DU PONT DE NEMOURS AND COMPANY, priority 2013, published 2015)

Experiments:
crabgrass, large [1] = test: Test A postemergence; format: in vivo, Digitaria sanguinalis
Summary of the method: (§1)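 Pre- and postemergence greenhouse test; loam+sand; cpd in non-phytotox. solvent/surfactant; post at 1–2 leaf, 2–10 cm; visual score ~10 d, 0 = none, 100 = complete control.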

rice = test: Test B flood; format: in vivo, Oryza sativa; conditions: 250 g ai/ha, visual rating on 0 to 100 scale (0 no effect, 100 complete control), 13 to 15 days
Summary of the method: (§2)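 Two-leaf-stage plants, pots flooded (3 cm above soil) and treated through the water, which stayed at that depth. After 13–15 days in greenhouse conditions, visual assessment versus controls: 0 is no effect, 100 complete control, dash means no result.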

corn [2] = test: Test A preemergence; format: in vivo, Zea mays; conditions: preemergence
Summary of the method: as §1

barnyardgrass [3] = test: Test A postemergence; format: in vivo, Echinochloa crus-galli; conditions: Postemergence
Summary of the method: as §1

ducksalad = test: Test B flood; format: in vivo, Heteranthera limosa; conditions: 250 g ai/ha, visual rating on 0 to 100 scale (0 no effect, 100 complete control), 13 to 15 days
Summary of the method: as §2

velvetleaf [4] = test: Test A preemergence; format: in vivo, Abutilon theophrasti; conditions: preemergence
Summary of the method: as §1

morningglory [5] = test: Test A preemergence; format: in vivo, Ipomoea spp.; conditions: preemergence
Summary of the method: as §1

foxtail, giant [6] = test: Test A preemergence; format: in vivo, Setaria faberii; conditions: preemergence
Summary of the method: as §1

barnyardgrass [7] = test: Test B flood; format: in vivo, Echinochloa crus-galli; conditions: 250 g ai/ha, visual rating on 0 to 100 scale (0 no effect, 100 complete control), 13 to 15 days
Summary of the method: as §2

pigweed [8] = test: Test A preemergence; format: in vivo, Amaranthus retroflexus; conditions: preemergence
Summary of the method: as §1

wheat [9] = test: Test A preemergence; format: in vivo, Triticum aestivum; conditions: preemergence
Summary of the method: as §1

morningglory [10] = test: Test A postemergence; format: in vivo, Ipomoea spp.
Summary of the method: as §1

barnyardgrass [11] = test: Test A preemergence; format: in vivo, Echinochloa crus-galli; conditions: preemergence
Summary of the method: as §1

pigweed [12] = test: Test A postemergence; format: in vivo, Amaranthus retroflexus
Summary of the method: as §1

velvetleaf [13] = test: Test A postemergence; format: in vivo, Abutilon theophrasti
Summary of the method: as §1

crabgrass, large [14] = test: Test A preemergence; format: in vivo, Digitaria sanguinalis; conditions: preemergence
Summary of the method: as §1

wheat [15] = test: Test A postemergence; format: in vivo, Triticum aestivum
Summary of the method: as §1

foxtail, giant [16] = test: Test A postemergence; format: in vivo, Setaria faberii
Summary of the method: as §1

sedge, umbrella = test: Test B flood; format: in vivo, Cyperus difformis; conditions: 250 g ai/ha, visual rating on 0 to 100 scale (0 no effect, 100 complete control), 13 to 15 days
Summary of the method: as §2

corn [17] = test: Test A postemergence; format: in vivo, Zea mays
Summary of the method: as §1

[18] = Postemergence, 500 g ai/ha, visual rating after approx. 10 days, 0 to 100 scale (0 no effect, 100 complete control)
[19] = postemergence, 125 g ai/ha, about 10 days, visual rating on 0 to 100 scale (0 no effect, 100 complete control)
[20] = 125 g ai/ha, visual injury, 0 to 100 scale, approx. 10 days
[21] = 500 g ai/ha, visual injury after approx. 10 days, 0 to 100 scale (0 no effect, 100 complete control)
[22] = 125 g ai/ha, 0 to 100 scale, 0 no effect, 100 complete control
[23] = 500 g ai/ha, visual rating after approx. 10 days, 0 to 100 scale (0 no effect, 100 complete control)

SMILES | Crabgrass, Large plant response rating (crabgrass, large [1]; [18]) | Crabgrass, Large plant response rating (crabgrass, large [1]; [19]) | Plant response rating, Rice (rice) | Corn plant response rating (corn [2]; [20]) | Corn plant response rating (corn [2]; [21]) | Barnyardgrass plant response rating (barnyardgrass [3]; [22]) | Barnyardgrass plant response rating (barnyardgrass [3]; [23]) | Plant response rating, Ducksalad (ducksalad) | Velvetleaf plant response rating (velvetleaf [4]; [20]) | Velvetleaf plant response rating (velvetleaf [4]; [21]) | Morningglory plant response rating (morningglory [5]; [20]) | Morningglory plant response rating (morningglory [5]; [21]) | Foxtail, Giant plant response rating (foxtail, giant [6]; [20]) | Foxtail, Giant plant response rating (foxtail, giant [6]; [21]) | Plant response rating, Barnyardgrass (barnyardgrass [7]) | Pigweed plant response rating (pigweed [8]; [20]) | Pigweed plant response rating (pigweed [8]; [21]) | Wheat plant response rating (wheat [9]; [20]) | Wheat plant response rating (wheat [9]; [21]) | Morningglory plant response rating (morningglory [10]; [18]) | also measured
CCc1cc(C(=O)NCC(F)(F)F)nn1Oc1cccc(C(F)(F)F)n1 [Compound 87] | 10 | 0 | 0 | 0 | 0 | 0 | 0 | 0 | 0 | 0 | 0 | 10 | 0 | 0 | 0 | 0 | 40 | 0 | 0 | 20 | Morningglory plant response rating (morningglory [10]; [19]): 10; Barnyardgrass plant response rating (barnyardgrass [11]; [20]): 0; Barnyardgrass plant response rating (barnyardgrass [11]; [21]): 0; Pigweed plant response rating (pigweed [12]; [18]): 10; Pigweed plant response rating (pigweed [12]; [19]): 0; Velvetleaf plant response rating (velvetleaf [13]; [18]): 10; Velvetleaf plant response rating (velvetleaf [13]; [19]): 0; Crabgrass, Large plant response rating (crabgrass, large [14]; [20]): 0; Crabgrass, Large plant response rating (crabgrass, large [14]; [21]): 80; Wheat plant response rating (wheat [15]; [18]): 0; Wheat plant response rating (wheat [15]; [19]): 0; Foxtail, Giant plant response rating (foxtail, giant [16]; [18]): 0; Foxtail, Giant plant response rating (foxtail, giant [16]; [19]): 0; Plant response rating, Sedge, Umbrella (sedge, umbrella): 0; Corn plant response rating (corn [17]; [18]): 0; Corn plant response rating (corn [17]; [19]): 0
CCCc1cc(C(=O)NCC(F)(F)F)nn1Oc1ccnc(C(F)(F)F)c1 [Compound 92] | 30 | 0 | 0 | 0 | 40 | 0 | 40 | 50 | 0 | 0 | 0 | 20 | 20 | 100 | 0 | 40 | 100 | 0 | 20 | 40 | Morningglory plant response rating (morningglory [10]; [19]): 0; Barnyardgrass plant response rating (barnyardgrass [11]; [20]): 0; Barnyardgrass plant response rating (barnyardgrass [11]; [21]): 90; Pigweed plant response rating (pigweed [12]; [18]): 40; Pigweed plant response rating (pigweed [12]; [19]): 0; Velvetleaf plant response rating (velvetleaf [13]; [18]): 20; Velvetleaf plant response rating (velvetleaf [13]; [19]): 0; Crabgrass, Large plant response rating (crabgrass, large [14]; [20]): 20; Crabgrass, Large plant response rating (crabgrass, large [14]; [21]): 100; Wheat plant response rating (wheat [15]; [18]): 20; Wheat plant response rating (wheat [15]; [19]): 0; Foxtail, Giant plant response rating (foxtail, giant [16]; [18]): 50; Foxtail, Giant plant response rating (foxtail, giant [16]; [19]): 0; Plant response rating, Sedge, Umbrella (sedge, umbrella): 50; Corn plant response rating (corn [17]; [18]): 40; Corn plant response rating (corn [17]; [19]): 0
CCCc1cc(C(=O)NC2CC2)nn1Oc1ccnc(C(F)(F)F)c1 [Compound 93] | 80 | 20 | 0 | 0 | 80 | 0 | 40 | 50 | 0 | 0 | 0 | 50 | 30 | 100 | 0 | 30 | 100 | 0 | 30 | 60 | Morningglory plant response rating (morningglory [10]; [19]): 0; Barnyardgrass plant response rating (barnyardgrass [11]; [20]): 0; Barnyardgrass plant response rating (barnyardgrass [11]; [21]): 90; Pigweed plant response rating (pigweed [12]; [18]): 60; Pigweed plant response rating (pigweed [12]; [19]): 20; Velvetleaf plant response rating (velvetleaf [13]; [18]): 20; Velvetleaf plant response rating (velvetleaf [13]; [19]): 0; Crabgrass, Large plant response rating (crabgrass, large [14]; [20]): 70; Crabgrass, Large plant response rating (crabgrass, large [14]; [21]): 100; Wheat plant response rating (wheat [15]; [18]): 40; Wheat plant response rating (wheat [15]; [19]): 20; Foxtail, Giant plant response rating (foxtail, giant [16]; [18]): 80; Foxtail, Giant plant response rating (foxtail, giant [16]; [19]): 20; Plant response rating, Sedge, Umbrella (sedge, umbrella): 50; Corn plant response rating (corn [17]; [18]): 90; Corn plant response rating (corn [17]; [19]): 0
